Molecules are shown by their SMILES.

What all share (format): cell-based
In one test the target is T1, WEE1 (Homo sapiens, UniProt P30291+Q96SW2).
T1 construct: effects of the compounds of the present disclosure on the expression of target proteins in cells; endogenous in cells; host or cells: human PBMCs (hPBMCs)
The test is described as follows: Western-blot assay, substrate protein degradation in hPBMCs: WEE1. As to conditions: for substrate protein remaining % WEE1: 24 hours of compound treatment, 50 nM and 500 nM; for WEE1 substrate protein remaining %: compounds at 50 nM and 500 nM, 24 hours. The procedure:
(§1) Conventional Western blot assay was performed to evaluate the effects of the compounds of the present disclosure on the expression of target proteins in cells. • (1) Cell Seeding and Protein Harvesting: Human peripheral blood mononuclear cells (hPBMCs) at a density of 1x10^6 cells/mL were thawed according to the PBMC Recovery Protocol (Milecell Biotechnologies Inc, Shanghai). […] After 24 hours of compounds treatment, cells were harvested and lysed in RIPA protein lysate containing protease inhibitors on ice for 30 min, followed by centrifugation. The supernatant was aspirated as the extracted total cell protein. The protein concentration of the supernatant was determined using the conventional BCA (Bicinchoninic Acid) assay. • (2) To the collected supernatant, 5X SDS sample loading buffer was added, followed by denaturation at 95°C for 5 minutes. The denatured samples were then separated by SDS-PAGE electrophoresis on a polyacrylamide gel. Proteins were transferred to a nitrocellulose membrane (0.45 µm NC membrane), blocked with blocking buffer at room temperature for 1 hour, and subjected to antibody incubation and development procedures according to the antibody manufacturer's instructions (Cell Signaling Technology).
(§2) Half-Maximal Degradation Concentration value (the drug concentration required for degrading proteins by 50%, abbreviated as DC50) reads method: comparing the grayscale values of Western blot bands from drug-treated samples with those from blank DMSO-treated controls, and identifying the drug concentration range at which the grayscale value is half that of the DMSO-treated control bands.
(§3) DC50 values can be calculated using ImageJ software to measure grayscale values of Western blot bands from drug-treated samples. The concentration-response curve is fitted to estimate the drug concentration corresponding to half the grayscale value.
(§4) Target protein remaining (%) refers to the percentage of target protein remaining in cells after treatment with protein degrader compounds.
(§5) Calculation method for target protein remaining (%): Use ImageJ software to measure grayscale values of Western blot bands from drug (protein degrader)-treated samples. The grayscale value of drug-treated bands is divided by that of internal control protein bands, and the resulting quotient is normalized to obtain the relative percentage of remaining target protein after protein degrader treatment. Target protein degradation rate(%) = 1−target protein remaining(%). [formula]

Another test addresses T2, IKZF1 (Homo sapiens, UniProt Q13422+Q96SW2).
T2 construct: effects of the compounds of the present disclosure on the expression of target proteins in cells; endogenous in cells; host or cells: human PBMCs (hPBMCs)
The test is described as follows: Western-blot assay, substrate protein degradation in hPBMCs: IKZF1. Conditions: for substrate protein remaining % IKZF1: 24 hours of compound treatment, 50 nM and 500 nM; for IKZF1 substrate protein remaining %: compounds at 50 nM and 500 nM, 24 hours. The procedure: as §1, §2, §3, §4, §5

For another test, the target named is T3, IKZF2 (Homo sapiens, UniProt Q96SW2+Q9UKS7).
T3 construct: effects of the compounds of the present disclosure on the expression of target proteins in cells; endogenous in cells; host or cells: human PBMCs (hPBMCs)
T3 sequence (Q9UKS7 whole entry): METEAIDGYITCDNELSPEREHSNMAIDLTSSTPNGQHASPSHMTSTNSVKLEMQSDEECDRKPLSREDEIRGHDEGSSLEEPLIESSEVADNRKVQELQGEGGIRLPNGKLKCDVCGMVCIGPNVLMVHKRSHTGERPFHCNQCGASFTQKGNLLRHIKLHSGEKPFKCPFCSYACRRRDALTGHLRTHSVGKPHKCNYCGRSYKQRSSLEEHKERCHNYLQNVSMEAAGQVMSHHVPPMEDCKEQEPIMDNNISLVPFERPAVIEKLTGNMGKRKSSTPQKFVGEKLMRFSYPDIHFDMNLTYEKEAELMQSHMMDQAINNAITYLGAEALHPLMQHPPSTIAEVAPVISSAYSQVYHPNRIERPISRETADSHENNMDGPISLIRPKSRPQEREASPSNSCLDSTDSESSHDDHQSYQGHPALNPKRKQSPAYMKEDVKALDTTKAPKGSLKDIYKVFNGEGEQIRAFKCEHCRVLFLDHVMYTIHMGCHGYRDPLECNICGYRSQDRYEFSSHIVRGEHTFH
T3 sequence (Q96SW2 whole entry): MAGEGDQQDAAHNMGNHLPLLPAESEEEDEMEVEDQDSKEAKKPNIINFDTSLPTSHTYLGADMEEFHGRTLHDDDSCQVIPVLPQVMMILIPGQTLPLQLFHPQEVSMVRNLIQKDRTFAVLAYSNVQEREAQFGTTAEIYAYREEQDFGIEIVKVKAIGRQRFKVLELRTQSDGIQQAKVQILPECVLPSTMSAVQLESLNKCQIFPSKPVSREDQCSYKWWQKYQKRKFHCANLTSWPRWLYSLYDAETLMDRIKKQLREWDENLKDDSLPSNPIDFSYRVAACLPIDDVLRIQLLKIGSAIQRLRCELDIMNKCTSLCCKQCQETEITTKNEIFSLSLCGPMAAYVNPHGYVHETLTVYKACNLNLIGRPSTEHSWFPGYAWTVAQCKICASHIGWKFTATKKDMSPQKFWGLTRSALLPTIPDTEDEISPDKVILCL
T3 sequence (Q16531 whole entry partner): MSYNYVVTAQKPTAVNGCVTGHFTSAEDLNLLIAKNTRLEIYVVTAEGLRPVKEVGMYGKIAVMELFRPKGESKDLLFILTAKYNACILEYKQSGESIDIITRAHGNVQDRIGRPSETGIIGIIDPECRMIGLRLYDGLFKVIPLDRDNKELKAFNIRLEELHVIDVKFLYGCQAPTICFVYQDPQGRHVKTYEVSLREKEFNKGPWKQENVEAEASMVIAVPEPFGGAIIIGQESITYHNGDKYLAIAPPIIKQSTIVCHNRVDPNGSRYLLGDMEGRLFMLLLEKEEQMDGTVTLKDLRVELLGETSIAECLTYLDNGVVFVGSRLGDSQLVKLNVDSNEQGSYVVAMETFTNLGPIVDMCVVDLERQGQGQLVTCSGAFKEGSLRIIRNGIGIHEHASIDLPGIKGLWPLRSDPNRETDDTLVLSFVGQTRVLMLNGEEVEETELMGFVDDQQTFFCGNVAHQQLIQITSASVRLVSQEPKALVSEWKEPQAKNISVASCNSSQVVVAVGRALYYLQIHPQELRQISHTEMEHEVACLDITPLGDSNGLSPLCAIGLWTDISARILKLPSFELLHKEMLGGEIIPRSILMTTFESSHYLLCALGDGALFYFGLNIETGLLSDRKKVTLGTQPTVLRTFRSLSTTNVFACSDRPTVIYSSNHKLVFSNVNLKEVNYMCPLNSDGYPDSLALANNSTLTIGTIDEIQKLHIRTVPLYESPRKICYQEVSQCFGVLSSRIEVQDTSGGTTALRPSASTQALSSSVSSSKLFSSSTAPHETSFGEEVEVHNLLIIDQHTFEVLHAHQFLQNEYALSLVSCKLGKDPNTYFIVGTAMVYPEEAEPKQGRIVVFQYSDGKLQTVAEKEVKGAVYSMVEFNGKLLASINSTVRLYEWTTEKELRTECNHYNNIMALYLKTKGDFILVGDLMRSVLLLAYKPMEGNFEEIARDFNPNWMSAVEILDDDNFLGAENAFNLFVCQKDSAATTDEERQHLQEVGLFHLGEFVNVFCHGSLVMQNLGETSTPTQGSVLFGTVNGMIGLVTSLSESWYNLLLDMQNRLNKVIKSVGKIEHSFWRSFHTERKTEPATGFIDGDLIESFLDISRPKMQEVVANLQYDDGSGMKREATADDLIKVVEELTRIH
Kind of test: Western-blot assay, substrate protein degradation in hPBMCs: IKZF2. Conditions: for substrate protein remaining % IKZF2: 24 hours of compound treatment, 50 nM and 500 nM; for IKZF2 substrate protein remaining %: compounds at 50 nM and 500 nM, 24 hours. The procedure:
as §1, §2, §3, §4, §5

Another test addresses T4, IKZF3 (Homo sapiens, UniProt Q96SW2+Q9UKT9).
T4 construct: effects of the compounds of the present disclosure on the expression of target proteins in cells; endogenous in cells; host or cells: human PBMCs (hPBMCs)
Kind of test: Western-blot assay, substrate protein degradation in hPBMCs: IKZF3. Conditions: for substrate protein remaining % IKZF3: 24 hours of compound treatment, 50 nM and 500 nM; for IKZF3 substrate protein remaining %: compounds at 50 nM and 500 nM, 24 hours. The method, then:
as §1, §2, §3, §4, §5

The target of the next test is T5, CK1α (Homo sapiens, UniProt P48729+Q96SW2).
T5 construct: effects of the compounds of the present disclosure on the expression of target proteins in cells; endogenous in cells; host or cells: human PBMCs (hPBMCs)
Kind of test: Western-blot assay, substrate protein degradation in hPBMCs: CK1α. Conditions: for substrate protein remaining % CK1α: 24 hours of compound treatment, 50 nM and 500 nM; for CK1α substrate protein remaining %: compounds at 50 nM and 500 nM, 24 hours. The method, then:
as §1, §2, §3, §4, §5

The next test deals with T6, GSPT1 (Homo sapiens, UniProt P15170+Q96SW2).
T6 construct: effects of the compounds of the present disclosure on the expression of target proteins in cells; endogenous in cells; host or cells: human PBMCs (hPBMCs)
T6 sequence (P15170 whole entry): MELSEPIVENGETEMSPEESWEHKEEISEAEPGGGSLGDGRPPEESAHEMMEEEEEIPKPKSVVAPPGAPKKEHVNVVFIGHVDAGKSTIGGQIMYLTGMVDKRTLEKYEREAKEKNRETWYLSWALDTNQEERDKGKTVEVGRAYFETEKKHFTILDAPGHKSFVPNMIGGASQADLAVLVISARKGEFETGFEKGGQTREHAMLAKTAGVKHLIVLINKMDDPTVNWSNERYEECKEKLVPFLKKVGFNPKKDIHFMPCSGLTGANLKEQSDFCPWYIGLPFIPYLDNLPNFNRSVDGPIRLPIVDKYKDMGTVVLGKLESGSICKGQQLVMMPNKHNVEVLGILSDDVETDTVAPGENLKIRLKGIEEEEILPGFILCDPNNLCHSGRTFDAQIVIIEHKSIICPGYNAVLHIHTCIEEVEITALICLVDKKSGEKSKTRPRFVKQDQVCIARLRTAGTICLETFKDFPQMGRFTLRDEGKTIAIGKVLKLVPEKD
T6 sequence (Q96SW2 whole entry): as the sequence (Q96SW2 whole entry) above
T6 sequence (Q16531 whole entry partner): as the sequence (Q16531 whole entry partner) above
The test is described as follows: Western-blot assay, substrate protein degradation in hPBMCs: GSPT1. As to conditions: for substrate protein remaining % GSPT1: 24 hours of compound treatment, 50 nM and 500 nM; for GSPT1 substrate protein remaining %: compounds at 50 nM and 500 nM, 24 hours. The method, then:
as §1, §2, §3, §4, §5

T4 sequence (Q9UKT9 whole entry): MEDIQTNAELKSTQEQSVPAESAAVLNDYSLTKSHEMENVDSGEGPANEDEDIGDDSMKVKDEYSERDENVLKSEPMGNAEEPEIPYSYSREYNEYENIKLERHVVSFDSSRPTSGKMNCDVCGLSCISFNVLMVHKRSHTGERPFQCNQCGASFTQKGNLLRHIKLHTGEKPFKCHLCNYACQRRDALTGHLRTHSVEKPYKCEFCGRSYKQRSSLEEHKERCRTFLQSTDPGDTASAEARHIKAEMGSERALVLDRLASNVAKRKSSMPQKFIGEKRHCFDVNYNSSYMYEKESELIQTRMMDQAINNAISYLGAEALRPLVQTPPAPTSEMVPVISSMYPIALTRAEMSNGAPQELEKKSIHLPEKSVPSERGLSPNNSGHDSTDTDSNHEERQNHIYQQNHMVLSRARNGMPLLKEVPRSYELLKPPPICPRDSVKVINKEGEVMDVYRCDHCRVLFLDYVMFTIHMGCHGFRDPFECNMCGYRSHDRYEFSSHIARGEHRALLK
T4 sequence (Q96SW2 whole entry): as the sequence (Q96SW2 whole entry) above
T4 sequence (Q16531 whole entry partner): as the sequence (Q16531 whole entry partner) above
T1 sequence (P30291 whole entry): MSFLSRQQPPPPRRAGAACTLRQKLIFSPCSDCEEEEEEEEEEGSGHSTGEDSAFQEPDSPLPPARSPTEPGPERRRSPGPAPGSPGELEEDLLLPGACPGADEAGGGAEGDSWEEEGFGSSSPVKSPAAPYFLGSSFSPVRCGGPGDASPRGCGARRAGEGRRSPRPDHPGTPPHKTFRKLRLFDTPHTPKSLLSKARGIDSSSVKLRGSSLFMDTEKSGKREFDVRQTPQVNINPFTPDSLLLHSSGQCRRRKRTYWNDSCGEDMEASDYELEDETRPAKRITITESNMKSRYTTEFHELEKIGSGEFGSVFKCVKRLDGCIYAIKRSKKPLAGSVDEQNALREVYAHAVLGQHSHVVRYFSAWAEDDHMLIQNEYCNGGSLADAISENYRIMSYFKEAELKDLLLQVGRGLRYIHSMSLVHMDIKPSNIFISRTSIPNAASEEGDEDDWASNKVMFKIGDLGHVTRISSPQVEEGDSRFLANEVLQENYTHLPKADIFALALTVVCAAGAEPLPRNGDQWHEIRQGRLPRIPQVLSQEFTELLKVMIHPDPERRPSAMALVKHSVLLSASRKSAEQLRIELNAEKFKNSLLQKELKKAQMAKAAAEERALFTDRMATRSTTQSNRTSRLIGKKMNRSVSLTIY
T1 sequence (Q96SW2 whole entry): as the sequence (Q96SW2 whole entry) above
T1 sequence (Q16531 whole entry partner): as the sequence (Q16531 whole entry partner) above
T2 sequence (Q13422 whole entry): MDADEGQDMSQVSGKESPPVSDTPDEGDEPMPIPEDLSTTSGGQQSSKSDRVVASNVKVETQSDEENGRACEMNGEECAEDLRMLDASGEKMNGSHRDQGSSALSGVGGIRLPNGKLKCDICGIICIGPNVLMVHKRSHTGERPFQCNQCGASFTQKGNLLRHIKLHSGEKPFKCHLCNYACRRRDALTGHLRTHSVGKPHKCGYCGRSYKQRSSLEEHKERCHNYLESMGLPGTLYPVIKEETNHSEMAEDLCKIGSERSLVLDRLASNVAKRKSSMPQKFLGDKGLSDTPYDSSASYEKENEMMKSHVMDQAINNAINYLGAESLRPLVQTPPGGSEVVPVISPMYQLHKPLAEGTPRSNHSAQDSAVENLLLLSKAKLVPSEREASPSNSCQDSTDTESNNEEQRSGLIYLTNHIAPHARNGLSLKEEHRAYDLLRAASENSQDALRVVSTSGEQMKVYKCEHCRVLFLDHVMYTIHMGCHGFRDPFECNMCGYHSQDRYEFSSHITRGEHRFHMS
T2 sequence (Q96SW2 whole entry): as the sequence (Q96SW2 whole entry) above
T2 sequence (Q16531 whole entry partner): as the sequence (Q16531 whole entry partner) above

Turning to `O=C1CCN(N2Cc3cc(CN4CCC(n5c(=O)[nH]c6cc(F)ccc65)CC4)ccc3C2=O)C(=O)N1` [GT-07579, 1-(5-((4-(5-fluoro-2-oxo-2,3-dihydro-1H-benzo[d]imidazol-1-yl)piperidin-1-yl)methyl)-1-oxoisoindolin-2-yl)dihydropyrimidine-2,4(1H,3H)-dione], on WEE1, the “substrate protein remaining % WEE1” value is given as “A (0% ≤ substrate protein remaining % ≤ 80%)”. For the same molecule, the “substrate protein remaining % IKZF1” value on IKZF1 is on record as “A (0% ≤ substrate protein remaining % ≤ 80%)”. In addition, the “substrate protein remaining % IKZF2” value at IKZF2 is given as “A (0% ≤ substrate protein remaining % ≤ 80%)”. Moreover, at IKZF3, the “substrate protein remaining % IKZF3” value is given as “B (80%< substrate protein remaining %≤ 100%)”. Further, at CK1α, the “substrate protein remaining % CK1α” value is “B (80%< substrate protein remaining %≤ 100%)”. In addition, the “substrate protein remaining % GSPT1” value on GSPT1 is given as “A (0% ≤ substrate protein remaining % ≤ 80%)”.
On to `Cc1cc(N2CCN(Cc3ccc4c(c3)CN(N3CCC(=O)NC3=O)C4=O)CC2)cc(C)n1` [GT-07033, 1-(5-((4-(2,6-dimethylpyridin-4-yl)piperazin-1-yl)methyl)-1-oxoisoindolin-2-yl)dihydropyrimidine-2,4(1H,3H)-dione], for which the “WEE1 substrate protein remaining %” value on WEE1 is on record as “B ("B" is defined as 80%< substrate protein remaining %≤ 100%)”. For the same molecule, on IKZF1, the “IKZF1 substrate protein remaining %” value is “B ("B" is defined as 80%< substrate protein remaining %≤ 100%)”. The “IKZF2 substrate protein remaining %” value on IKZF2 is listed as “B ("B" is defined as 80%< substrate protein remaining %≤ 100%)”. Also, at IKZF3, the “IKZF3 substrate protein remaining %” value is “B ("B" is defined as 80%< substrate protein remaining %≤ 100%)”. Besides, on CK1α, the “CK1α substrate protein remaining %” value is recorded as “B ("B" is defined as 80%< substrate protein remaining %≤ 100%)”. Moreover, the “GSPT1 substrate protein remaining %” value at GSPT1 is “A ("A" is defined as 0% ≤ substrate protein remaining % ≤ 80%)”.
Turning to `O=C1CCN(N2Cc3cc(CN4CC5CCC4CN5c4cccc(Cl)c4Cl)ccc3C2=O)C(=O)N1` (stereo not drawn) [GT-07428, 1-(5-((5-(2,3-dichlorophenyl)-2,5-diazabicyclo[2.2.2]octan-2-yl)methyl)-1-oxoisoindolin-2-yl)dihydropyrimidine-2,4(1H,3H)-dione], the “substrate protein remaining % WEE1” value at WEE1 is “B (80%< substrate protein remaining %≤ 100%)”. The “substrate protein remaining % IKZF1” value at IKZF1 is “A (0% ≤ substrate protein remaining % ≤ 80%)”. Further, the “substrate protein remaining % IKZF2” value on IKZF2 was “B (80%< substrate protein remaining %≤ 100%)”. Also, the “substrate protein remaining % IKZF3” value at IKZF3 is listed as “B (80%< substrate protein remaining %≤ 100%)”. The “substrate protein remaining % CK1α” value at CK1α is on record as “A (0% ≤ substrate protein remaining % ≤ 80%)”. The “substrate protein remaining % GSPT1” value at GSPT1 is reported as “A (0% ≤ substrate protein remaining % ≤ 80%)”.
For `O=C1CCN(N2Cc3cc(CN4CCC(c5ccccc5C(F)(F)F)CC4)ccc3C2=O)C(=O)N1` [GT-06891, 1-(1-oxo-5-((4-(2-(trifluoromethyl)phenyl)piperidin-1-yl)methyl)isoindolin-2-yl)dihydropyrimidine-2,4(1H,3H)-dione], the “WEE1 substrate protein remaining %” value at WEE1 is recorded as “A ("A" is defined as 0% ≤ substrate protein remaining % ≤ 80%)”. In addition, on IKZF1, the “IKZF1 substrate protein remaining %” value is recorded as “B ("B" is defined as 80%< substrate protein remaining %≤ 100%)”. The “IKZF2 substrate protein remaining %” value at IKZF2 is on record as “A ("A" is defined as 0% ≤ substrate protein remaining % ≤ 80%)”. Further, the “IKZF3 substrate protein remaining %” value at IKZF3 is recorded as “B ("B" is defined as 80%< substrate protein remaining %≤ 100%)”. In addition, at CK1α, the “CK1α substrate protein remaining %” value is listed as “B ("B" is defined as 80%< substrate protein remaining %≤ 100%)”. Further, the “GSPT1 substrate protein remaining %” value at GSPT1 is recorded as “A ("A" is defined as 0% ≤ substrate protein remaining % ≤ 80%)”.

For the origin of these results see patent publication EP4722207A1, “OXOISOINDOLINYL-SUBSTITUTED TETRAHYDROPYRIMIDINEDIONE DERIVATIVE AND USE THEREOF” (Gluetacs Therapeutics (Shanghai) Co., Ltd., priority 2023, dated 2024).
